# Source: US8952024B2, “Herbicidal pyrimidone derivatives” (E I du Pont de Nemours and Company, priority 2009, dated 2015)
# Columns and labels:
# Assay in all cases: Test D pre-/postemergence plant response
# Assay type in all cases: in vivo
# [1] = tested on: naked crabgrass (Digitaria nuda)
# Method in brief: (§1)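 Seeds in loam–sand blend treated preemergence, and plants at 1- to 4-leaf stage (2–18 cm) treated postemergence, with compounds in non-phytotoxic solvent with surfactant. Greenhouse for 14–21 days, then visual rating against controls, 0 (no effect) to 100 (complete control).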
# [2] = tested on: bluegrass (annual bluegrass, Poa annua)
# Method in brief: as §1
# [3] = tested on: dallisgrass (Paspalum dilatatum)
# Method in brief: as §1
# [4] = tested on: kochia (Kochia scoparia)
# Method in brief: as §1
# [5] = tested on: morningglory (pitted morningglory, Ipomoea lacunosa)
# Method in brief: as §1
# [6] = tested on: ragweed (common ragweed, Ambrosia elatior)
# Method in brief: as §1
# [7] = tested on: green foxtail (Setaria viridis)
# Method in brief: as §1
# [8] = tested on: large crabgrass (Digitaria sanguinalis)
# Method in brief: as §1
# [9] = tested on: barnyardgrass (Echinochloa crus-galli)
# Method in brief: as §1
# [10] = tested on: guineagrass (Panicum maximum)
# Method in brief: as §1
# [11] = tested on: Surinam grass (Brachiaria decumbens)
# Method in brief: as §1
# [12] = tested on: Russian thistle (Salsola kali)
# Method in brief: as §1
# [13] = tested on: quackgrass (Elytrigia repens)
# Method in brief: as §1
# [14] = tested on: mallow (common mallow, Malva sylvestris)
# Method in brief: as §1
# [15] = tested on: sandbur (southern sandbur, Cenchrus echinatus)
# Method in brief: as §1
# [16] = tested on: signalgrass (broadleaf signalgrass, Brachiaria platyphylla)
# Method in brief: as §1
# [17] = Postemergence, 16 g ai/ha, scale 0 to 100
# [18] = Postemergence, 31 g ai/ha, scale 0 to 100
# [19] = Postemergence, 125 g ai/ha, scale 0 to 100 (0 no effect, 100 complete control)
# [20] = Postemergence, 62 g ai/ha, scale 0 to 100 (0 no effect, 100 complete control)
# [21] = Preemergence, 16 g ai/ha, scale 0 to 100, 0 no effect, 100 complete control
# [22] = Preemergence, 31 g ai/ha, scale 0 to 100 (0 no effect, 100 complete control)
# [23] = Preemergence, 62 g ai/ha, scale 0 to 100
# [24] = Preemergence, 125 g ai/ha, scale 0 to 100
# [25] = Postemergence, 31 g ai/ha, scale 0 to 100 (0 no effect, 100 complete control)
# [26] = Postemergence, 250 g ai/ha, scale 0 to 100 (0 no effect, 100 complete control)
compound,measurement,setting,value
"Cc1c(F)cccc1-n1c(-c2ccccc2)ncc(C(=O)C2=C(O)CCCC2=O)c1=O [Compound 47, 3-(3-fluoro-2-methylphenyl)-5-[(2-hydroxy-6-oxo-1-cyclohexen-1-yl)carbonyl]-2-phenyl-4(3H)-pyrimidinone]","Plant response rating, Crabgrass, Naked",[1]; [17],20
same,"Plant response rating, Crabgrass, Naked",[1]; [18],35
same,"Plant response rating, Crabgrass, Naked",[1]; [19],65
same,"Plant response rating, Crabgrass, Naked",[1]; [20],35
same,"Plant response rating, Crabgrass, Naked",[1]; [21],0
same,"Plant response rating, Crabgrass, Naked",[1]; [22],0
same,"Plant response rating, Crabgrass, Naked",[1]; [23],60
same,"Plant response rating, Crabgrass, Naked",[1]; [24],98
same,"Plant response rating, Bluegrass",[2]; [17],0
same,"Plant response rating, Bluegrass",[2]; [25],0
same,"Plant response rating, Bluegrass",[2]; [19],0
same,"Plant response rating, Bluegrass",[2]; [20],0
same,"Plant response rating, Bluegrass",[2]; [21],0
same,"Plant response rating, Bluegrass",[2]; [22],0
same,"Plant response rating, Bluegrass",[2]; [23],0
same,"Plant response rating, Bluegrass",[2]; [24],35
same,"Plant response rating, Dallisgrass",[3]; [17],5
same,"Plant response rating, Dallisgrass",[3]; [18],10
same,"Plant response rating, Dallisgrass",[3]; [19],15
same,"Plant response rating, Dallisgrass",[3]; [20],15
same,"Plant response rating, Dallisgrass",[3]; [21],0
same,"Plant response rating, Dallisgrass",[3]; [22],25
same,"Plant response rating, Dallisgrass",[3]; [23],65
same,"Plant response rating, Dallisgrass",[3]; [24],75
same,"Plant response rating, Kochia",[4]; [17],0
same,"Plant response rating, Kochia",[4]; [18],10
same,"Plant response rating, Kochia",[4]; [19],30
same,"Plant response rating, Kochia",[4]; [20],20
same,"Plant response rating, Kochia",[4]; [21],0
same,"Plant response rating, Kochia",[4]; [22],50
same,"Plant response rating, Kochia",[4]; [23],100
same,"Plant response rating, Kochia",[4]; [24],100
same,"Plant response rating, Morningglory",[5]; [17],5
same,"Plant response rating, Morningglory",[5]; [18],5
same,"Plant response rating, Morningglory",[5]; [19],50
same,"Plant response rating, Morningglory",[5]; [21],0
same,"Plant response rating, Morningglory",[5]; [22],0
same,"Plant response rating, Morningglory",[5]; [23],20
same,"Plant response rating, Morningglory",[5]; [24],65
same,"Plant response rating, Ragweed",[6]; [17],75
same,"Plant response rating, Ragweed",[6]; [18],75
same,"Plant response rating, Ragweed",[6]; [19],95
same,"Plant response rating, Ragweed",[6]; [20],80
same,"Plant response rating, Ragweed",[6]; [21],0
same,"Plant response rating, Ragweed",[6]; [22],50
same,"Plant response rating, Ragweed",[6]; [24],100
same,"Plant response rating, Foxtail, Green",[7]; [17],5
same,"Plant response rating, Foxtail, Green",[7]; [18],35
same,"Plant response rating, Foxtail, Green",[7]; [19],95
same,"Plant response rating, Foxtail, Green",[7]; [20],50
same,"Plant response rating, Foxtail, Green",[7]; [21],0
same,"Plant response rating, Foxtail, Green",[7]; [22],0
same,"Plant response rating, Foxtail, Green",[7]; [23],0
same,"Plant response rating, Foxtail, Green",[7]; [24],0
same,"Plant response rating, Crabgrass, Large",[8]; [17],20
same,"Plant response rating, Crabgrass, Large",[8]; [18],50
same,"Plant response rating, Crabgrass, Large",[8]; [19],65
same,"Plant response rating, Crabgrass, Large",[8]; [20],60
same,"Plant response rating, Crabgrass, Large",[8]; [21],0
same,"Plant response rating, Crabgrass, Large",[8]; [22],0
same,"Plant response rating, Crabgrass, Large",[8]; [23],5
same,"Plant response rating, Crabgrass, Large",[8]; [24],95
same,"Plant response rating, Barnyardgrass",[9]; [17],70
same,"Plant response rating, Barnyardgrass",[9]; [25],70
same,"Plant response rating, Barnyardgrass",[9]; [19],70
same,"Plant response rating, Barnyardgrass",[9]; [20],70
same,"Plant response rating, Barnyardgrass",[9]; [21],0
same,"Plant response rating, Barnyardgrass",[9]; [22],0
same,"Plant response rating, Barnyardgrass",[9]; [23],5
same,"Plant response rating, Barnyardgrass",[9]; [24],5
same,"Plant response rating, Guineagrass",[10]; [17],10
same,"Plant response rating, Guineagrass",[10]; [18],20
same,"Plant response rating, Guineagrass",[10]; [19],30
same,"Plant response rating, Guineagrass",[10]; [20],20
same,"Plant response rating, Guineagrass",[10]; [21],0
same,"Plant response rating, Guineagrass",[10]; [22],0
same,"Plant response rating, Guineagrass",[10]; [23],0
same,"Plant response rating, Guineagrass",[10]; [24],0
same,"Plant response rating, Surinam Grass",[11]; [17],35
same,"Plant response rating, Surinam Grass",[11]; [18],50
same,"Plant response rating, Surinam Grass",[11]; [19],70
same,"Plant response rating, Surinam Grass",[11]; [20],60
same,"Plant response rating, Surinam Grass",[11]; [21],0
same,"Plant response rating, Russian Thistle",[12]; [17],20
same,"Plant response rating, Russian Thistle",[12]; [20],20
same,"Plant response rating, Russian Thistle",[12]; [21],0
same,"Plant response rating, Russian Thistle",[12]; [24],100
same,"Plant response rating, Quackgrass",[13]; [17],0
same,"Plant response rating, Quackgrass",[13]; [18],0
same,"Plant response rating, Quackgrass",[13]; [19],5
same,"Plant response rating, Quackgrass",[13]; [20],0
same,"Plant response rating, Quackgrass",[13]; [21],0
same,"Plant response rating, Quackgrass",[13]; [22],0
same,"Plant response rating, Quackgrass",[13]; [24],0
same,"Plant response rating, Mallow",[14]; [17],35
same,"Plant response rating, Mallow",[14]; [18],50
same,"Plant response rating, Mallow",[14]; [19],65
same,"Plant response rating, Mallow",[14]; [20],65
same,"Plant response rating, Mallow",[14]; [21],0
same,"Plant response rating, Mallow",[14]; [22],0
same,"Plant response rating, Mallow",[14]; [23],65
same,"Plant response rating, Mallow",[14]; [24],98
same,"Plant response rating, Sandbur",[15]; [17],5
same,"Plant response rating, Sandbur",[15]; [18],5
same,"Plant response rating, Sandbur",[15]; [19],35
same,"Plant response rating, Sandbur",[15]; [20],20
same,"Plant response rating, Sandbur",[15]; [21],0
same,"Plant response rating, Sandbur",[15]; [22],0
same,"Plant response rating, Sandbur",[15]; [24],90
same,"Plant response rating, Signalgrass",[16]; [17],0
same,"Plant response rating, Signalgrass",[16]; [18],5
same,"Plant response rating, Signalgrass",[16]; [19],20
same,"Plant response rating, Signalgrass",[16]; [20],15
same,"Plant response rating, Signalgrass",[16]; [21],0
same,"Plant response rating, Signalgrass",[16]; [22],0
same,"Plant response rating, Signalgrass",[16]; [24],90
COCCCn1c(-c2cc(F)cc(F)c2)ncc(C(=O)C2=C(O)C3CCC(C3)C2=O)c1=O (centres unmarked) [Compound 244],"Plant response rating, Bluegrass",[2]; [18],0
same,"Plant response rating, Bluegrass",[2]; [19],10
same,"Plant response rating, Bluegrass",[2]; [26],20
same,"Plant response rating, Bluegrass",[2]; [20],10
same,"Plant response rating, Dallisgrass",[3]; [18],40
same,"Plant response rating, Dallisgrass",[3]; [19],75
same,"Plant response rating, Dallisgrass",[3]; [26],80
same,"Plant response rating, Dallisgrass",[3]; [20],75
same,"Plant response rating, Kochia",[4]; [18],25
same,"Plant response rating, Kochia",[4]; [19],50
same,"Plant response rating, Kochia",[4]; [26],65
same,"Plant response rating, Kochia",[4]; [20],50
same,"Plant response rating, Morningglory",[5]; [18],65
same,"Plant response rating, Morningglory",[5]; [19],75
same,"Plant response rating, Morningglory",[5]; [26],75
same,"Plant response rating, Morningglory",[5]; [20],70
same,"Plant response rating, Ragweed",[6]; [18],65
same,"Plant response rating, Ragweed",[6]; [19],80
same,"Plant response rating, Ragweed",[6]; [26],85
same,"Plant response rating, Ragweed",[6]; [20],70
same,"Plant response rating, Foxtail, Green",[7]; [18],75
same,"Plant response rating, Foxtail, Green",[7]; [19],95
same,"Plant response rating, Foxtail, Green",[7]; [26],100
same,"Plant response rating, Foxtail, Green",[7]; [20],90
same,"Plant response rating, Crabgrass, Large",[8]; [18],70
same,"Plant response rating, Crabgrass, Large",[8]; [19],75
same,"Plant response rating, Crabgrass, Large",[8]; [26],75
same,"Plant response rating, Crabgrass, Large",[8]; [20],75
same,"Plant response rating, Barnyardgrass",[9]; [18],80
same,"Plant response rating, Barnyardgrass",[9]; [19],85
same,"Plant response rating, Barnyardgrass",[9]; [26],90
same,"Plant response rating, Barnyardgrass",[9]; [20],80
same,"Plant response rating, Guineagrass",[10]; [18],70
same,"Plant response rating, Guineagrass",[10]; [19],75
same,"Plant response rating, Guineagrass",[10]; [26],75
same,"Plant response rating, Guineagrass",[10]; [20],75
same,"Plant response rating, Surinam Grass",[11]; [18],75
same,"Plant response rating, Surinam Grass",[11]; [19],80
same,"Plant response rating, Surinam Grass",[11]; [26],80
same,"Plant response rating, Surinam Grass",[11]; [20],75
same,"Plant response rating, Russian Thistle",[12]; [18],20
same,"Plant response rating, Russian Thistle",[12]; [19],60
same,"Plant response rating, Russian Thistle",[12]; [26],65
same,"Plant response rating, Russian Thistle",[12]; [20],40
same,"Plant response rating, Quackgrass",[13]; [18],20
same,"Plant response rating, Quackgrass",[13]; [19],50
same,"Plant response rating, Quackgrass",[13]; [26],65
same,"Plant response rating, Quackgrass",[13]; [20],40
same,"Plant response rating, Mallow",[14]; [18],50
same,"Plant response rating, Mallow",[14]; [19],60
same,"Plant response rating, Mallow",[14]; [26],70
same,"Plant response rating, Mallow",[14]; [20],50
same,"Plant response rating, Sandbur",[15]; [18],70
same,"Plant response rating, Sandbur",[15]; [19],75
same,"Plant response rating, Sandbur",[15]; [26],75
same,"Plant response rating, Sandbur",[15]; [20],70
same,"Plant response rating, Signalgrass",[16]; [18],20
same,"Plant response rating, Signalgrass",[16]; [19],25
same,"Plant response rating, Signalgrass",[16]; [26],35
same,"Plant response rating, Signalgrass",[16]; [20],20
